Where a name gives a salt, the structure may show the parent alone. Read-outs that look alike come from different tables or passages of the source. Marks after values point to notes of the source that are not given here.
How the values were obtained:
[1] = MLMs, cited from earlier work; for % Remaining after 30 min: protein concentration 0.5
5-HT2A = molecular target: 5-HT2A; set-up: method as in PMID 10073136; details: cited from earlier work
α1-adrenoceptor = molecular target: α1-adrenoceptor; set-up: method as in PMID 10073136; details: cited from earlier work
5-HT1A = molecular target: 5-HT1A; set-up: method as in PMID 10073136; details: cited from earlier work
mice [2] = details: i.p.; cited from earlier work
[3] = molecular target: voltage-sensitive calcium channels (Cav); set-up: method as in PMID 10073136; details: read-out: Ki Cav [3H]-nitrendipine; cited from earlier work
mice [4] = details: i.p.; cited from earlier work; remark: listed apart in the source
mice [5] = test: Forced swim test in naive mice; format: in vivo, mouse; details: alone
Description: Adult male Albino-Swiss mice (CD-1, 8 weeks old, 18–21g: Jagiellonian University Medical College, Krakow, Poland) were used in all experiments. Unless stated otherwise, the animals were kept in groups of 10 mice in standard cages (37 cm × 21 cm × 15 cm) at a room temperature (22 ± 2 °C), on a 12 h light/dark cycle (lights on 7:00) with ad libitum access to food and water. Mice were used only once in each test. Behavioral experiments were performed between 8 am and 4 pm and evaluated by a trained observer blind to the treatments. Mice were handled for 1 week before starting the experimental procedures. Animals were randomly allocated to the treatment using a computer-generated sequence, and researchers making measurements on the animals or analyzing the results were blind to the allocation. Moreover, experimental groups were distributed across multiple cages, and the location of the mouse cages in the room was changed following each day.
HBK-10, WAY-100635 (Sigma, Darmstadt, Germany), p-chlorophenylalanine (pCPA; Sigma, Darmstadt, Germany), fluoxetine (Sigma, Darmstadt, Germany), reboxetine (Sigma, Darmstadt, Germany) and bupropion (Sigma, Darmstadt, Germany), were suspended in 1% Tween, and administered ip at a volume of 10 mL/kg 30 min before each behavioral test. The control groups received saline ip 30 min prior to testing. The doses of fluoxetine, reboxetine and bupropion as well as WAY-100635 and pCPA were based on our previous studies with 2-methoxyphenylpiperazine derivatives.
(§1) The experiment was performed on mice according to the method described by Porsolt et al. and as previously described. Mice were placed individually in glass cylinders (height 25 cm, diameter 10 cm) filled with water at 24 ± 1 °C to a depth of 10 cm and left there for 6 min. Following a 2 min habituation period, total time spent immobile was recorded during the next 4 min. The animal was considered as immobile when it remained floating passively in the water, making only small movements to keep its head above the water. The experiments were video-recorded and scored using elevenmaze.com software by a trained observer blind to the treatments.
To assess the involvement of a serotonergic system in the antidepressant-like activity of tested compounds in the forced swim test, the mice were pretreated with pCPA (tryptophan hydroxylase inhibitor) according to the method previously described. […]. Twenty-four hours after the last pCPA administration, we injected mice with 1% Tween ip or tested compound. We performed the forced swim test 30 min after the administration.
The putative involvement of 5-HT1A receptors in the antidepressant-like effect of tested compound was studied using WAY-100635 (a selective 5-HT1A receptor antagonist). WAY-100635 at a dose of 0.1 mg/kg was administered sc 15 min prior to the injection of HBK-10. After 30 min the forced swim test was performed. The behaviorally ineffective dose of WAY-100635 used in the experiments was based on our previous experiments.

serotonin level = test system: serotonin level; set-up: method as in PMID 9044239; details: 3-day treatment with pCPA; cited from earlier work
[6] = test system: corticosterone-treated mice; test: Locomotor activity in corticosterone-treated mice; format: in vivo, mouse; details: 15 mg/kg ip chronic, 4 min
Description: The locomotor activity of mice was measured as previously described. We used photoresistor actometers (Ugo Basile, Italy) connected to a counter for the recording of light-beam interruptions. Mice were placed individually in cages for 30 min, and the number of crossings of the light beams was recorded as the locomotor activity for 4 min.
(§2) Mice were injected with corticosterone (sc, 20 mg/kg) at random times during the light phase for 21 days. The dose and route of administration of corticosterone were based on our previous study. Control mice received saline containing 0.1% dimethyl sulfoxide (DMSO) and 0.1% Tween (sc). For the next 21 days, 30 min before the corticosterone injection, mice were injected with saline, HBK-10 (0.625 or 1.25 mg/kg), or fluoxetine (15 mg/kg) (ip). Twenty-four hours after the last injection, animals were tested in the forced swim test and locomotor activity test (Figure 8).

[7] = test system: corticosterone-treated mice; test: Forced swim test in corticosterone-induced mouse model of depression; format: in vivo; details: fluoxetine 15 mg/kg ip, chronic (3 weeks)
Description: as §1, §2

For `O=C1CCc2ccc(OCCCCN3CCN(c4cccc(Cl)c4Cl)CC3)cc2N1` [Aripiprazole], the t1/2 ([1]; protein concentration 1.0) is listed as 217 ^b min.

In the case of `COc1ccccc1N1CCN(CCCOc2c(C)cccc2C)CC1` [Compd. I, 1-[3-(2,6-dimethylphenoxy)propyl]-4-(2-methoxyphenyl)piperazine hydrochloride], the Ki (5-HT2A) is given as 192 nM, the Ki (α1-adrenoceptor) is given as 2.1 nM and the Ki (5-HT1A) is given as 4.9 nM.

In the case of `CC[C@@H](CO)NCCOc1c(C)cccc1C` [Compd. II, (S)-{2-[(2-(2,6-dimethylphenoxy)ethyl]amino}butan-1-ol hydrochloride], the “MES ED50” value (mice [2]) is listed as 7.57 mg/kg, the Ki [3] is listed as 18 µM and the “Rotarod test TD50” value (mice [4]) is listed as 34.45 mg/kg.

For `N[C@@H](Cc1ccc(Cl)cc1)C(=O)O` (racemic) [pCPA, p-chlorophenylalanine], the “Effect on immobility in the forced swim test” value (mice [5]; pCPA 200 mg/kg ip once daily for three days) is given as “had no effect on the immobility”, the “Reduction of serotonin level in midbrain” value (serotonin level) is given as 24% and the “Reduction of serotonin level in the cortical regions” value (serotonin level) is given as “around 30%”.

In the case of `CNCCC(Oc1ccc(C(F)(F)F)cc1)c1ccccc1` (stereo not drawn) [Fluoxetine, reference compound], the “Number of Crossings ± SEM” value [6] is reported as 462.5 ± 41.81 and the “Decrease of immobility in the forced swim test in corticosterone-treated mice” value [7] is reported as 32%.

In the case of `COc1ccccc1N1CCN(CCN(C(=O)C2CCCCC2)c2ccccn2)CC1` [WAY-100635, reference compound], the “Effect on immobility in the forced swim test” value (mice [5]; WAY-100635 0.1 mg/kg sc) is reported as “had no effect on the immobility”.

In the case of `O=C1CC2(CCCC2)CC(=O)N1CCCCN1CCN(c2ncccn2)CC1` [Buspirone], the “% Remaining after 30 min” value [1] is listed as 0.29 ^a % and the “% Remaining after 30 min” value ([1]; listed as buspirone) is listed as “lower than 1%”.
